Columns and labels:
TBK1 = TBK1 (Homo sapiens (Human), UniProt Q9UHD2); assay: TBK1 TR-FRET enzymatic assay;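 note: phosphorylation of a biotinylated Ser/Thr peptide by purified full-length recombinant TBK1, read by TR-FRET after 240 min at 25 °C, IC50 is the geometric mean of at least four runs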
IKKε = IKKε (Homo sapiens (Human), UniProt Q14164); assay: IKKε TR-FRET enzymatic assay; assay type: biochemical; conditions: read-out: IKKe IC50
hJAK2 = hJAK2 (Homo sapiens (Human), UniProt O60674); assay: hJAK2 LANCE TR-FRET enzymatic assay; assay type: biochemical; conditions: read-out: JAK2 IC50
hJAK2, sequence (O60674 whole entry): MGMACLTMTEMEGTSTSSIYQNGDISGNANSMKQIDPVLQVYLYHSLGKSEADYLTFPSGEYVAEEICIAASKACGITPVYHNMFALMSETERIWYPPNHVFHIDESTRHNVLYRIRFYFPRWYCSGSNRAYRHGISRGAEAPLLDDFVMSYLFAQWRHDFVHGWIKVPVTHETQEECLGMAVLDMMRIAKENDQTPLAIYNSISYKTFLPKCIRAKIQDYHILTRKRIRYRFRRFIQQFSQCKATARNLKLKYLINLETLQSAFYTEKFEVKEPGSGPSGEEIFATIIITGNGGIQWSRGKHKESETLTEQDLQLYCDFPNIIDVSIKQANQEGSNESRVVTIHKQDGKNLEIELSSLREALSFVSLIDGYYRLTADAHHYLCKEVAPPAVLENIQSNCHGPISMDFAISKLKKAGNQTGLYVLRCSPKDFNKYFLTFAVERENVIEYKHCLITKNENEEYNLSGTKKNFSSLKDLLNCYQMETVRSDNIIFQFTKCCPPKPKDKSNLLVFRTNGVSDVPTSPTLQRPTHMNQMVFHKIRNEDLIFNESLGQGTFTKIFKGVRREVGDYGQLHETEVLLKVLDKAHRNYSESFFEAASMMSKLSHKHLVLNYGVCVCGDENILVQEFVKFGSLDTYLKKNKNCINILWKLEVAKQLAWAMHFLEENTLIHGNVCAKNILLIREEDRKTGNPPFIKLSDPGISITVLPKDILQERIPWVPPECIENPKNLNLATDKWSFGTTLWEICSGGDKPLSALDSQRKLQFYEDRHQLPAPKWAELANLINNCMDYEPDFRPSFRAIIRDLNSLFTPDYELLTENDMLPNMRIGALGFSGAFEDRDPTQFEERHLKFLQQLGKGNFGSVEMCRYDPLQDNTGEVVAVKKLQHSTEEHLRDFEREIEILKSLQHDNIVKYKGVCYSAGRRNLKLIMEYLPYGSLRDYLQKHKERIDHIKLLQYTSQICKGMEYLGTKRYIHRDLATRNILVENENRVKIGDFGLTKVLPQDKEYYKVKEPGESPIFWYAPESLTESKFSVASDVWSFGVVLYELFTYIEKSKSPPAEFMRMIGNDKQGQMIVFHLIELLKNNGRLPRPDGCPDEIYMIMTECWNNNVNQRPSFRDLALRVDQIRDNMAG

TBK1, sequence (Q9UHD2 whole entry): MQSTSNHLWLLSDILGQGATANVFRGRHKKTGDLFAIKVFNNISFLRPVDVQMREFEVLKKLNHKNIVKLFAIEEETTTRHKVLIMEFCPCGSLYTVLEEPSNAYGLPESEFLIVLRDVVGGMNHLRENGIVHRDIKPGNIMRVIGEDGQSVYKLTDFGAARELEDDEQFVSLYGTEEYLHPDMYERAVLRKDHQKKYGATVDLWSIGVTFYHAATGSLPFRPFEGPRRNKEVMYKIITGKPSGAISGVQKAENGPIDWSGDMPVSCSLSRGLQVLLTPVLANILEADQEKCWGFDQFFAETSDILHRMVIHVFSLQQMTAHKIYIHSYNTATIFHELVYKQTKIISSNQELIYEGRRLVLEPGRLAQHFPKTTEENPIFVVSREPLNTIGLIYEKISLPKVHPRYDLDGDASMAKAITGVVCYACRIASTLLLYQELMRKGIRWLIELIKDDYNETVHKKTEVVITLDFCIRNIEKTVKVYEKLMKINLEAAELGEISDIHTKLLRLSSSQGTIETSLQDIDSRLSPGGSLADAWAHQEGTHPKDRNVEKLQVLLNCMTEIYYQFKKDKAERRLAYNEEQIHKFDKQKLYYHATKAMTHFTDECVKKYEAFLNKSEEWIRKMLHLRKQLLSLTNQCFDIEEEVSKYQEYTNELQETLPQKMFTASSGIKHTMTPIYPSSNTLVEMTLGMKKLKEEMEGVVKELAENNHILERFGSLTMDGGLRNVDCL
IKKε, sequence (Q14164 whole entry): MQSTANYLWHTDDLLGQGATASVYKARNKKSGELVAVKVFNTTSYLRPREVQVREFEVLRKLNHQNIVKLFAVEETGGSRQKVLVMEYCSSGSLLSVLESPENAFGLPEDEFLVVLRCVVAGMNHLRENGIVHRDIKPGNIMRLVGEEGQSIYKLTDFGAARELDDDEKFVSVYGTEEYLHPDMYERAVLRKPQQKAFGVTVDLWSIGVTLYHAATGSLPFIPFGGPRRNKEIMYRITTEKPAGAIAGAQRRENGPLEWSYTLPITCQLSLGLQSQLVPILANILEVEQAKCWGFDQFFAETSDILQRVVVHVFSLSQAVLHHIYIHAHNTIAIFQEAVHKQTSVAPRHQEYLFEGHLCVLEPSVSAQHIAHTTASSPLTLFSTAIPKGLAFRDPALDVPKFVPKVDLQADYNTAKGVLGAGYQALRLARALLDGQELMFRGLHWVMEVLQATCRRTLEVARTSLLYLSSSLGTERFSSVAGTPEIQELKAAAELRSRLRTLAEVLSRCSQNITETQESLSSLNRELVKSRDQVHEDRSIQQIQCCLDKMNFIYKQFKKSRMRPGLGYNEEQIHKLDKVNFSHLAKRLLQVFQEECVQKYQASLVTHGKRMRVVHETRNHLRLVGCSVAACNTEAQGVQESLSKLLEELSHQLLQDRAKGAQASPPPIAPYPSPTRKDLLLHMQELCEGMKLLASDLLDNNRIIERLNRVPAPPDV

SMILES | IC50 (TBK1) [nM] | IC50 (IKKε) [nM] | IC50 (hJAK2) [nM]
N#Cc1cc(-c2ncnc(Nc3ccc(N4CCN(C5COC5)CC4)cc3)n2)ccc1OC1CNCC1(F)F (stereo not drawn) [Example 194, 2-((4,4-difluoropyrrolidin-3-yl)oxy)-5-(4-((4-(4-(oxetan-3-yl)piperazin-1-yl)phenyl)amino)-1,3,5-triazin-2-yl)benzonitrile] | 6 | 29 | 308
CS(=O)(=O)N1CC[C@@H](Oc2ccc(-c3ncnc(Nc4ccc(N5CCN(C6COC6)CC5)cc4)n3)cc2C#N)C1 [Example 197, (R)-2-((1-(methylsulfonyl)pyrrolidin-3-yl)oxy)-5-(4-((4-(4-(oxetan-3-yl)piperazin-1-yl)phenyl)amino)-1,3,5-triazin-2-yl)benzonitrile] | 26 | 79 | 173
C[C@H](O)C(=O)N1CC(Oc2ccc(-c3ncnc(Nc4ccc(N5CCN(C6COC6)CC5)cc4)n3)cc2C#N)C(F)(F)C1 (stereo partly drawn) [Example 198, 2-((4,4-difluoro-1-((S)-2-hydroxypropanoyl)pyrrolidin-3-yl)oxy)-5-(4-((4-(4-(oxetan-3-yl)piperazin-1-yl)phenyl)amino)-1,3,5-triazin-2-yl)benzonitrile] | 10 | 68 | 265
N#Cc1cc(-c2ncnc(Nc3ccc(N4CCN(C5COC5)CC4)cc3)n2)ccc1O[C@@H]1CCC(=O)NC1 [Example 199, (R)-5-(4-((4-(4-(oxetan-3-yl)piperazin-1-yl)phenyl)amino)-1,3,5-triazin-2-yl)-2-((6-oxopiperidin-3-yl)oxy)benzonitrile] | 4 | 6 | 200
N#Cc1cc(-c2ncnc(Nc3ccc(N4CCN(C5COC5)CC4)cc3)n2)ccc1N1CC[C@@H](F)C1 [Example 200, (R)-2-(3-fluoropyrrolidin-1-yl)-5-(4-((4-(4-(oxetan-3-yl)piperazin-1-yl)phenyl)amino)-1,3,5-triazin-2-yl)benzonitrile] | 3 | 7 | 109
N#Cc1cc(-c2ncnc(Nc3ccc(N4CCN(C5COC5)CC4)cc3)n2)ccc1N1CC[C@H](F)C1 [Example 201, (S)-2-(3-fluoropyrrolidin-1-yl)-5-(4-((4-(4-(oxetan-3-yl)piperazin-1-yl)phenyl)amino)-1,3,5-triazin-2-yl)benzonitrile] | 1 | 5 | 69
N#Cc1cc(-c2ncnc(Nc3ccc(N4CCN(C5COC5)CC4)cc3)n2)ccc1N1CC[C@@H](O)C1 [Example 202, (R)-2-(3-hydroxypyrrolidin-1-yl)-5-(4-((4-(4-(oxetan-3-yl)piperazin-1-yl)phenyl)amino)-1,3,5-triazin-2-yl)benzonitrile] | 3 | 13 | 192
N#Cc1cc(-c2ncnc(Nc3ccc(N4CCN(C5COC5)CC4)cc3)n2)ccc1N1CC[C@H](O)C1 [Example 203, (S)-2-(3-hydroxypyrrolidin-1-yl)-5-(4-((4-(4-(oxetan-3-yl)piperazin-1-yl)phenyl)amino)-1,3,5-triazin-2-yl)benzonitrile] | 7 | 27 | 315
C[C@@H]1C[C@@H](O)CN1c1ccc(-c2ncnc(Nc3ccc(N4CCN(C5COC5)CC4)cc3)n2)cc1C#N [Example 204, 2-((2R,4R)-4-hydroxy-2-methylpyrrolidin-1-yl)-5-(4-((4-(4-(oxetan-3-yl)piperazin-1-yl)phenyl)amino)-1,3,5-triazin-2-yl)benzonitrile] | 1 | 18 | 47
C[C@H]1C[C@@H](O)CN1c1ccc(-c2ncnc(Nc3ccc(N4CCN(C5COC5)CC4)cc3)n2)cc1C#N [Example 205, 2-((2S,4R)-4-hydroxy-2-methylpyrrolidin-1-yl)-5-(4-((4-(4-(oxetan-3-yl)piperazin-1-yl)phenyl)amino)-1,3,5-triazin-2-yl)benzonitrile] | 1 | 17 | 51
N#Cc1cc(-c2ncnc(Nc3ccc(N4CCN(C5COC5)CC4)cc3)n2)ccc1N1CCC2(COC2)C1 [Example 206, 5-(4-((4-(4-(oxetan-3-yl)piperazin-1-yl)phenyl)amino)-1,3,5-triazin-2-yl)-2-(2-oxa-6-azaspiro[3.4]octan-6-yl)benzonitrile] | 12 | 20 | 236
N#Cc1cc(-c2ncnc(Nc3ccc(N4CCN(C5COC5)CC4)cc3)n2)ccc1N1CCC2(CCO2)C1 (stereo not drawn) [Example 207, 5-(4-((4-(4-(oxetan-3-yl)piperazin-1-yl)phenyl)amino)-1,3,5-triazin-2-yl)-2-(1-oxa-6-azaspiro[3.4]octan-6-yl)benzonitrile] | 38 | 128 | 258
N#Cc1cc(-c2ncnc(Nc3ccc(N4CCN(C5COC5)CC4)cc3)n2)ccc1N1CCC2(C1)OCCO2 [Example 208, 5-(4-((4-(4-(oxetan-3-yl)piperazin-1-yl)phenyl)amino)-1,3,5-triazin-2-yl)-2-(1,4-dioxa-7-azaspiro[4.4]nonan-7-yl)benzonitrile] | 64 | 283 | 330
N#Cc1cc(-c2ncnc(Nc3ccc(N4CCN(C5COC5)CC4)cc3)n2)ccc1N1CC2(CCO2)C1 [Example 210, 5-(4-((4-(4-(oxetan-3-yl)piperazin-1-yl)phenyl)amino)-1,3,5-triazin-2-yl)-2-(1-oxa-6-azaspiro[3.3]heptan-6-yl)benzonitrile] | 26 | 71 | 354
N#Cc1cc(-c2ncnc(Nc3ccc(N4CCN(C5COC5)CC4)cc3)n2)ccc1N1CC2(CCOCC2)C1 [Example 211, 5-(4-((4-(4-(oxetan-3-yl)piperazin-1-yl)phenyl)amino)-1,3,5-triazin-2-yl)-2-(7-oxa-2-azaspiro[3.5]nonan-2-yl)benzonitrile] | 6 | 22 | 170
N#Cc1cc(-c2ncnc(Nc3ccc(N4CCN(C5COC5)CC4)cc3)n2)ccc1N1CCC2(CCOCC2)C1 [Example 212, 5-(4-((4-(4-(oxetan-3-yl)piperazin-1-yl)phenyl)amino)-1,3,5-triazin-2-yl)-2-(8-oxa-2-azaspiro[4.5]decan-2-yl)benzonitrile] | 29 | 63 | 137
N#Cc1cc(-c2ncnc(Nc3ccc(N4CCN(C5COC5)CC4)cc3)n2)ccc1N1CCC2(CCOC2)CC1 [Example 213, 5-(4-((4-(4-(oxetan-3-yl)piperazin-1-yl)phenyl)amino)-1,3,5-triazin-2-yl)-2-(2-oxa-8-azaspiro[4.5]decan-8-yl)benzonitrile] | 3 | 14 | ≥ 1000
N#Cc1cc(-c2ncnc(Nc3ccc(N4CCN(C5COC5)CC4)cc3)n2)ccc1N1CCC2(CCO2)CC1 [Example 214, 5-(4-((4-(4-(oxetan-3-yl)piperazin-1-yl)phenyl)amino)-1,3,5-triazin-2-yl)-2-(1-oxa-7-azaspiro[3.5]nonan-7-yl)benzonitrile] | 12 | 43 | 301
N#Cc1cccc(-c2ncnc(Nc3ccc(N4CCN(C5COC5)CC4)cc3)n2)c1 [Example 215, 3-(4-((4-(4-(oxetan-3-yl)piperazin-1-yl)phenyl)amino)-1,3,5-triazin-2-yl)benzonitrile] | 1000 | ≥ 1000 | 657

Reference: patent US10040781B2, “Tank-binding kinase inhibitor compounds” (Gilead Sciences, Inc., priority 2014, dated 2018)
